US7863465B2, “Antifungal agents” (Merck Sharp & Dohme Corp., priority 2006, dated 2011)
pIC50: −log10 of the molar value. Structures can show the parent of a compound that is named as a salt.

Biological target: T1, glucan synthase (GS) prepared from Candida albicans MY1055 (Candida albicans, UniProt O13428)
T1 construct: Extraction of GS activity from membranes was performed at a protein concentration of 5 mg/mL in extraction buffer; endogenous in cells; host or cells: Candida albicans MY1055 (membranes, detergent extract, product entrapment)
T1 sequence (O13428 1-1897): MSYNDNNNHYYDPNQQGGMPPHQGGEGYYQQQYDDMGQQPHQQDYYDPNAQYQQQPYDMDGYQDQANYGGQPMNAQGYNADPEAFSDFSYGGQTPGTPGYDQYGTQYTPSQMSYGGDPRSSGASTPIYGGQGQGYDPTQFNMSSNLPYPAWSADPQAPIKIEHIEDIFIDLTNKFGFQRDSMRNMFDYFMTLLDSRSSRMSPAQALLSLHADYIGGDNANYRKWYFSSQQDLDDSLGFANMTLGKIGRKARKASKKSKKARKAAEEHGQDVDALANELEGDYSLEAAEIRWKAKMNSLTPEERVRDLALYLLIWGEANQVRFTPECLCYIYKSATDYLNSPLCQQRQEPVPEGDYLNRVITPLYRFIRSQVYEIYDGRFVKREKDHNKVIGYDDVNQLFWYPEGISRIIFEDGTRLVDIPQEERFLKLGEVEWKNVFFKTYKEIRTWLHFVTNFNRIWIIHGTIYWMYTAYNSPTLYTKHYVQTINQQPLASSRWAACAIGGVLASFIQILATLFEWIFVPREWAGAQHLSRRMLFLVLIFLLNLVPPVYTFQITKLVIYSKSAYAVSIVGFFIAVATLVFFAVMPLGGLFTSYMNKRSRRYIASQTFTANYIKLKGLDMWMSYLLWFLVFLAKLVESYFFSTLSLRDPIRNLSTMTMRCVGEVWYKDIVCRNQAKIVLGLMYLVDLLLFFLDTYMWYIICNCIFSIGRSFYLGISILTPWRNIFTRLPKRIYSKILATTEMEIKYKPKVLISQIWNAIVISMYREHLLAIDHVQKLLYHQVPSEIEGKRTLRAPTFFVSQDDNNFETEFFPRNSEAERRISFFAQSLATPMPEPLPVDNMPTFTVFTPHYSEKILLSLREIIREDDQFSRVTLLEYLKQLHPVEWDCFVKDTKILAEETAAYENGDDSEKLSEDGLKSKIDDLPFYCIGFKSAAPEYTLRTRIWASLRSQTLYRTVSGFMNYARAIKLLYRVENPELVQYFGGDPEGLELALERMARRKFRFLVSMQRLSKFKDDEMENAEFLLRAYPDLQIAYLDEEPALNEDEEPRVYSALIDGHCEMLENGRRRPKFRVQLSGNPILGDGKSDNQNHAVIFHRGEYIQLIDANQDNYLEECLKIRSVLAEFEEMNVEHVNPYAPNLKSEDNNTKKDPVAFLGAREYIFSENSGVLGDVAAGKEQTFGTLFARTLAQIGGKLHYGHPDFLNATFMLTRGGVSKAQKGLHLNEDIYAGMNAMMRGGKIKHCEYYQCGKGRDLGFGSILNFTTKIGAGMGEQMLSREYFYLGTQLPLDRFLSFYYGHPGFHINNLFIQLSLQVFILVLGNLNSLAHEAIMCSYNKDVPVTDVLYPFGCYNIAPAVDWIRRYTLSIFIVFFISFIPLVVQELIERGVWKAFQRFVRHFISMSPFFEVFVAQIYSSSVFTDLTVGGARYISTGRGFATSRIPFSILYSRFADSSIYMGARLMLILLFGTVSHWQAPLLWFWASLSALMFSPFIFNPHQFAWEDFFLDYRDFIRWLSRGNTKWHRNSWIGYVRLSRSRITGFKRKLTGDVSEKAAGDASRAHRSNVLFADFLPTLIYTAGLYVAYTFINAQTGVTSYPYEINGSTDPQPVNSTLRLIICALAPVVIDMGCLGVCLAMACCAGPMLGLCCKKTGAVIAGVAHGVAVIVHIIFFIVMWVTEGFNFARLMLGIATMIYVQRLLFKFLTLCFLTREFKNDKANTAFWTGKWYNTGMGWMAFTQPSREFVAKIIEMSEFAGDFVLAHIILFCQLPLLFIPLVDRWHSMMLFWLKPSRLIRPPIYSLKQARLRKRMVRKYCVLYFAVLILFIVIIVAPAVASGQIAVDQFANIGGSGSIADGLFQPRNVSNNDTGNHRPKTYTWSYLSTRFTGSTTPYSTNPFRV
T1 sequence (O42825 whole entry partner): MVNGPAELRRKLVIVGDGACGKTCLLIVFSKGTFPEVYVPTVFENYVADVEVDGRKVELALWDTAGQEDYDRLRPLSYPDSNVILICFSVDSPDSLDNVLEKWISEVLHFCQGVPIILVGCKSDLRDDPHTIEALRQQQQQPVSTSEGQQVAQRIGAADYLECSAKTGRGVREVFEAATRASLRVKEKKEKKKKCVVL
Assay: Glucan synthase inhibition (polymerization assay, 96-well, 3H-UDPG incorporation)
Type: biochemical
Details: glucan synthase from C. albicans MY1055
Procedure: The in vitro evaluation of glucan synthase inhibitory activity of compounds was measured in a polymerization assay in 96-well format. Each well contained 100 μL of ^3H-UDPG at 0.5 mM (6000 to 8000 dpm/nmol), 50 mM HEPES pH 7.5 (Sigma), 10% w/v glycerol (Sigma), 1.5 mg/mL bovine serum albumin (Sigma A 9647. Lot 44H0190), 25 mM KF (Fisher), 1 mM EDTA (Gibco Ultrapure), 25 μM GTP-γ-S, enzyme sufficient to give 3 to 6 nmoles incorporation during the 60 min incubation at 22° C., and test compound added from wells in 3-fold serial dilutions in 100% DMSO (1 μL/well). The reaction was stopped by the addition of 100 μL of 20% trichloroacetic acid. Plates were chilled for a minimum of 10 min, and precipitated glucan collected by filtration on GF/C plates (Packard Unifilter®-96), washed with 5 cycles of water (about 1 mL/well each cycle) using a Packard Filtermate Harvester. 40 μL/well scintillation fluid (Packard Ultima Gold TM-XR) was added and the sealed plates counted in a Wallac Beta counter in top-counting mode at an efficiency of approximately 40%.
Stock solutions were stored at 10 mg/mL in DMSO at −20° C. For each new enzyme preparation, the initial titration performed started at 1 mg/mL, which was prepared by making a 10-fold dilution in DMSO (5 μL to 50 μL). 40 μL of this stock was placed in column 12 of a round-bottomed 96-well microtiter plate. 40 μL DMSO was added to columns 1 to 11 in the same row and ten 3-fold serial dilutions performed, by transferring 20 μL from column 12 to column 11 etc., with 4 mixings before each transfer. No test compound was transferred to from column 2 to column 1. Duplicate aliquots of 1 μL of all 12 dilutions were then transferred to the side walls of a 96-well Bioblock 1.1 mL plate (Fisherbrand) to create two rows.
The results were tabulated and a standard plate background was subtracted and the net count transpose-pasted into a Prism file, with final compound concentrations used in ng/mL. Graphs were created in Prism software, using the average of two determinations, and using Prism's curve fitting program (sigmoidal dose response non-linear regression).
Routine analysis was performed with glucan synthase (GS) prepared from Candida albicans MY1055 by the following procedure: MY1055 was grown in 10 liters YPD medium (10 g yeast extract, 20 g tryptone, 20 g glucose per liter) with vigorous shaking at 30° C., to early stationary phase. Cells were harvested by centrifugation, the pellet was washed and frozen at −70° C. until breakage. Thawed pellets were shaken with an equal volume of breakage buffer (50 mM HEPES pH 7.4, 10% glycerol, 1 mM EDTA, 1 mM PMSF, 1 mM DTT) and 4 times their weight of 0.5 mm acid washed glass beads for 2 hours at 4° C. Extent of breakage was assessed visually at 40× magnification. For C. parapsilosis strains, shaking was extended to 3 hours to maximize breakage. After low speed centrifugation to remove cell debris, the supernatant was centrifuged at 100,000×g for 60 min. to separate membranes plus ribosomes from cytoplasmic components. Membranes were further washed two additional times with breakage buffer using the same centrifugation conditions and finally suspended in breakage buffer at 25 to 30 mg/mL protein (Biorad) for storage at −70° C. Extraction of GS activity from membranes was performed at a protein concentration of 5 mg/mL in extraction buffer (50 mM NaPO4 pH 7.5, 0.1 M KCl, 0.1M Na citrate, 20% glycerol, 5 μM GTP-γ-S, 1 mM DTT, 1 mM PMSF, 3 μg/mL pepstatin) plus 0.25% W1 by gentle mixing at 4° C. for 60 min, followed by centrifugation at 100,000×g for 60 min. After centrifugation, clear supernatant was removed from a pellet consisting of a hard layer usually with small amounts of gelatinous unextracted membranes above it. […]

SMILES | pIC50
CC(=O)O[C@@H]1C[C@@]23COC[C@](C)([C@@H]2CC[C@H]2C3=CC(=O)[C@@]3(C)[C@H](C(=O)O)[C@@](C)([C@H](C)C(C)C)CC[C@]23C)[C@H]1OC[C@](C)(N)C(C)C [Example 151, (1S,2R,3R,4aR,6aS,7R,8R,10aR,10bR,12aR)-3-acetoxy-2-[[(2R)-2-amino-2,3-dimethylbutyl]oxy]-8-[(1R)-1,2-dimethylpropyl]-1,6a,8,10a-tetramethyl-6-oxo-1,3,4,6,6a,7,8,9,10,10a,10b,11,12,12a-tetradecahydro-2H-1,4a-(methanooxymethano)chrysene-7-carboxylic acid (fumaric acid salt)] | 7.77
CN[C@@](C)(CO[C@H]1[C@H](OC(C)=O)C[C@@]23COC[C@]1(C)[C@@H]2CC[C@H]1C3=CC(=O)[C@@]2(C)[C@H](C(=O)O)[C@@](C)([C@H](C)C(C)C)CC[C@]12C)C(C)C [Example 152, (1S,2R,3R,4aR,6aS,7R,8R,10aR,10bR,12aR)-3-acetoxy-2-[[(2R)-2-methylamino-2,3-dimethylbutyl]oxy]-8-[(1R)-1,2-dimethylpropyl]-1,6a,8,10a-tetramethyl-6-oxo-1,3,4,6,6a,7,8,9,10,10a,10b,11,12,12a-tetradecahydro-2H-1,4a-(methanooxymethano)chrysene-7-carboxylic acid (fumaric acid salt)] | 7.86
CC(=O)O[C@@H]1C[C@@]23COC[C@](C)([C@@H]2CC[C@H]2C3=CC(=O)[C@@]3(C)[C@H](C(=O)O)[C@@](C)([C@H](C)C(C)C)CC[C@]23C)[C@H]1OC[C@@](C)(C(C)C)N(C)C [Example 153, (1S,2R,3R,4aR,6aS,7R,8R,10aR,10bR,12aR)-3-acetoxy-2-[[(2R)-2-dimethylamino-2,3-dimethylbutyl]oxy]-8-[(1R)-1,2-dimethylpropyl]-1,6a,8,10a-tetramethyl-6-oxo-1,3,4,6,6a,7,8,9,10,10a,10b,11,12,12a-tetradecahydro-2H-1,4a-(methanooxymethano)chrysene-7-carboxylic acid (fumaric acid salt)] | 7.57
